Test results reported in US11701379B2, “In vitro and in vivo intracellular delivery of siRNA via self-assembled nanopieces” (Rhode Island Hospital, priority 2018, dated 2023).

Tested on: MMP-13 mRNA
Test: MMP-13 molecular beacon validation in chondrocytes with/without IL-1β
Format: cell-based, mouse
Settings: realtime rtPCR
Experimental: Fluorescence labeled GAPDH molecular beacon and fluorescence labeled MMP-13 molecular beacon or fluorescence labeled scrambled molecular beacon delivered with Nanopieces was added into chondrocytes under standard cell culture conditions or stimulated with 10 ng/mL IL-1β (FIG. 29).
Using an established method (Tyagi et al Nat. Biotech, 1998, 16:49-53), MBs were designed to target mouse MMP-13 or GAPDH mRNA with a fluorophore/quench pair. Scramble sequence MB (Scramble) was verified to not bind with any mouse mRNA via BLAST. In vitro delivery and validation: MBs were delivered into chondrocytes by Nanopieces. Specifically, after stimulation with IL-1β for 24 hours, chondrocytes were co-transfected GAPDH and scramble MBs or GAPDH and MMP-13 MBs via Nanopieces. Real time RT-PCR and fluorescence microscopy were used to verify the stimulation of MMP-13 expression and the successful fluorescence signal resulted from MMP-13 MB.
To test the efficacy of mRNA detection in chondrocytes using MBs delivered by Nanopieces, primary mouse chondrocytes were transfected with MBs either with or without IL-1β treatment. Before IL-1β treatment, the housekeeping GAPDH MB was detected while the MMP-13 MB was not (FIG. 29, left panels). In contrast, after IL-1β treatment, both GAPDH MB and MMP-13 MB were detected, indicating the induction of MMP-13 mRNA levels by IL-1β (FIG. 29, right panels). […]

IL-1β: cytokine used to stimulate chondrocytes
up-regulation of MMP-13 mRNA level: about 10 times
